Measured values taken from PMC3119039 (2011).

Target: Cdk2^as (Homo sapiens, UniProt P24941, F80G)
Experiment: histone H1 kinase assay with [γ-32P]ATP, purified Cdk2/cyclin A
Format: biochemical

IC50: ~3 nM
SMILES: Cc1cccc(Cc2nn(C(C)(C)C)c3ncnc(N)c23)c1 [3-MB-PP1]
